According to patent US10738041B2, “Ferroportin inhibitors” (Vifor (International) AG, priority 2015, dated 2020):
pIC50: −log10 of the molar value.

Columns and labels:
ferroportin (Fpn) = target: T1, ferroportin (Fpn) (Mus musculus, UniProt Q9JHI9); experiment: Hepcidin Internalization Assay (J774); type: cell-based; details: average of multiple measurements; inhibition of TMR-hepcidin (25 nM) internalization into J774 cells; read-out: J774 IC50
T1 construct: host or cells: J774 mouse macrophage cell line, Fe(III)-NTA induced
T1 sequence (Q9JHI9 1-570): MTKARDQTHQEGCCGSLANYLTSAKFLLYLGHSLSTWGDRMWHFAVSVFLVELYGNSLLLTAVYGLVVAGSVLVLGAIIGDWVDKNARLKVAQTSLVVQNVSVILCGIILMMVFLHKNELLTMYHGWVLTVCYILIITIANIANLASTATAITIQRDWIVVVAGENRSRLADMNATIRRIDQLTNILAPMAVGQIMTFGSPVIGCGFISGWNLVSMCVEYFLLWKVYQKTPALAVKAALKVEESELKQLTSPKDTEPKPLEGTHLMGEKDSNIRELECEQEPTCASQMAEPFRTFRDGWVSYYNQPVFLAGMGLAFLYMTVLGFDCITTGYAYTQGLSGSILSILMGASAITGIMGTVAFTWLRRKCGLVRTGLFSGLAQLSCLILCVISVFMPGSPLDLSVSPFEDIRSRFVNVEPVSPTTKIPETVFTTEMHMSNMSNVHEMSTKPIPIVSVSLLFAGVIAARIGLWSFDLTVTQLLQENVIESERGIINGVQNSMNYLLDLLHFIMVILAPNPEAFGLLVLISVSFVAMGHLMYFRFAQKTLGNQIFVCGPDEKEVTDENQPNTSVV
From the text: This cellular assay allows quantification of the binding of hepcidin to ferroportin (Fpn) through microscopic detection of internalization of a fluorescently labeled hepcidin into J774 cells. […] Binding of hepcidin to Fpn triggers internalization and degradation of both hepcidin and Fpn. However, the TMR (6-carboxytetramethylrhodamine) fluorophore attached to hepcidin remains associated with the cell after degradation of the hepcidin peptide backbone. Therefore, microscopic detection of ceH associated TMR fluorescence is a measure of hepcidin binding to Fpn and internalization of hepcidin and Fpn. If TMR-hepcidin is prevented from binding to Fpn, cellular TMR fluorescence remains low (Dürrenberger et al, 2013). The effect of small molecular weight Fpn inhibitor compounds in this assay was evaluated in vitro as described below.
J774 cells, harvested from ca. 80% confluent cultures, were plated at 8×10^5 cells/ml in complete medium (DMEM, 10% FBS, 1% Penicillin-Streptomycin) containing 200 μM Fe(III)NTA (nitrilotriacetic acid), 100 μl per well of 96 well MicroClear plates (Greiner; Cat. 655090) and grown at 37° C. with 5% CO2. After overnight incubation, cells were washed 3 times with pre-warmed DMEM w/o phenol red, 30 μl/well of DMEM w/o phenol red was added after the final wash and 10 μl/well of dilution series of test compounds were added in triplicates. […] Cells were incubated in a total volume of 50 μl at 37° C. with 5% CO2 for 2 hours, then Hoechst 33342 dye was added to a final concentration of 0.5 μg/ml to stain nuclei and further incubated for 10 min. at 37° C. with 5% CO2. Cells were washed 3 times with PBS and fixed in 100 μl of 4% paraformaldehyde in PBS for 15 min. at room temperature. After removal of the paraformaldehyde solution, cells were washed 3 times with PBS leaving 100 μl per well and the plates were sealed with foil plate seal. TMR (530-550 nm excitation/575-625 nm emission/400 ms exposure time) and Hoechst 33342 (360-370 nm excitation/420-460 nm emission/10 ms exposure time) fluorescence images were acquired using a ScanR plate imager (Olympus) with a 20× high NA objective. Four pictures were acquired per well and fluorescence channel covering ca. 1500 cells per well. The acquired image data was analysed with the ScanR image analysis software. Image analysis included detection of nuclei (Hoechst 33342 fluorescence), identification of cell-associated regions, application of a virtual channel and thresholding for rolling-ball-type background reduction, followed by application of the Sum(Mean) algorithm to measure the TMR fluorescence associated with cells as a quantitative measure for internalized TMR-hepcidin. IC50 values were calculated with the Sum(Mean) raw data using “log(inhibitor) vs. response” curve fitting of Prism 5 software (GraphPad Software Inc., version 5.02).

human Fpn = target: T2, human Fpn (Homo sapiens, UniProt Q9NP59); experiment: Biophysical Ferroportin-Hepcidin Binding Assay (fluorescence polarization); details: average of multiple measurements; 1 μM human Fpn, 20 nM TMR-hepcidin; read-out: FP IC50
T2 construct: FLAG (C); made in house; host or cells: Pichia pastoris
T2 sequence (Q9NP59 1-571): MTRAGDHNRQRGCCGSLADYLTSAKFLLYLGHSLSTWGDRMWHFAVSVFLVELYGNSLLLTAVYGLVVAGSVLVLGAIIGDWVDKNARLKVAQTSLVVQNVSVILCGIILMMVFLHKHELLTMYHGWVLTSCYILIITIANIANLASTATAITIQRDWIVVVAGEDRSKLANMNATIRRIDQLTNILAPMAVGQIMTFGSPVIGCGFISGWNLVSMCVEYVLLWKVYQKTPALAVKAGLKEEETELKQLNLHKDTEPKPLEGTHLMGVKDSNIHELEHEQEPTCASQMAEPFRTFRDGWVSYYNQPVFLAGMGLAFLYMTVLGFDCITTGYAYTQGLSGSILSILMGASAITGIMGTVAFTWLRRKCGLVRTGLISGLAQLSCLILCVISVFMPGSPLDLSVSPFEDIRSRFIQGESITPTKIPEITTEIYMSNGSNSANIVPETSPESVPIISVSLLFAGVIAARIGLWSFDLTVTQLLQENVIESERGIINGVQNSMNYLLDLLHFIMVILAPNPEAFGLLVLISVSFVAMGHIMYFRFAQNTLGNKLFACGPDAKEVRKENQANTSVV
Experimental: This biophysical assay was developed to confirm inhibition of hepcidin binding to ferroportin (Fpn) more directly. Incubation of TMR-hepcidin with purified human Fpn isolated from Pichia pastoris yeast cells expressing human Fpn with a C-terminal FLAG affinity tag (Bonaccorsi di Patti, 2014) leads to increased fluorescence polarization (FP) of the TMR-hepcidin ligand. Small molecular weight Fpn inhibitors were tested for inhibition of binding of TMR-hepcidin to Fpn, as detected by dose-dependent decrease of the TMR FP signal, as described in detail below.
8 μl of serial dilutions of test compounds were added in duplicates to reach final Fpn and TMR-hepcidin concentrations of 1 μM and 20 nM, respectively. Plates were incubated for 90 minutes at room temperature and parallel (S) and perpendicular (P) fluorescence was measured in a Synergy H1 fluorescence reader (BioTek). FP values were calculated in mP according to the following formula.

| Structure (SMILES) | pIC50 (ferroportin (Fpn)) | pIC50 (human Fpn) |
| --- | --- | --- |
| O=C(NCc1ccnc(N2CCOCC2)c1)c1csc(CCNCc2nc3ccccc3[nH]2)n1 [Example 96] | 5.53 | 5.14 |
| CN(C)c1ccc(CNC(=O)c2csc(CCNCc3nc4ccccc4[nH]3)n2)cn1 [Example 98] | 5.73 | 5.24 |
| O=C(NCc1cccnc1F)c1csc(CCNCc2nc3ccccc3[nH]2)n1 [Example 103] | 5.63 | 5.60 |
| COc1cc(CNC(=O)c2csc(CCNCc3nc4ccccc4[nH]3)n2)ccn1 [Example 104] | 6.05 | 5.76 |
| Cc1ccnc(CNC(=O)c2csc(CCNCc3nc4ccccc4[nH]3)n2)c1 [Example 106] | 5.82 | 5.35 |
| O=C(NCc1ncccc1CO)c1csc(CCNCc2nc3ccccc3[nH]2)n1 [Example 110] | 5.77 | 5.47 |
| O=C(NCc1ncccc1F)c1csc(CNCCCc2nc3ccccc3[nH]2)n1 [Example 119] | 6.79 | 5.28 |
| O=C(NCc1ncccc1F)c1csc(CCNc2nc3ccccc3[nH]2)n1 [Example 121] | 6.33 | 5.29 |
| O=C(NCc1ncc(F)cc1F)c1csc(CNCCCc2nc3ccccc3[nH]2)n1 [Example 124] | 5.20 | 5.46 |
| O=C(NCc1ncccc1F)c1csc(CCNCCCc2nc3ccccc3[nH]2)n1 [Example 125] | 5.78 | 5.43 |
| C=C(C)c1sc(CCNCc2nc3ccccc3[nH]2)nc1C(=O)NCc1ncccc1F [Example 177] | 5.38 | 4.81 |
| Cc1cnc(CNC(=O)c2nc(CCNCc3nc4ccccc4[nH]3)sc2Cl)nc1 [Example 178] | 5.44 | 5.72 |
| O=C(NCc1ncccc1F)c1cnn(CC2CN(Cc3nc4ccccc4[nH]3)C2)c1 [Example 187] | 4.06 | 4.45 |
| O=C(NCc1ncccc1F)c1cnn(CC2CN(CCc3nc4ccccc4[nH]3)C2)c1 [Example 192] | 4.87 | 4.31 |
| Cn1cc(C(=O)NCc2ncccc2F)nc1CCNCc1nc2ccccc2[nH]1 [Example 210] | 5.31 | 5.73 |
| CC1(c2nc(C(=O)NCc3ncccc3F)cs2)CN(CCc2nc3ccccc3[nH]2)C1 [Example 212] | 5.07 | 5.43 |

| Structure (SMILES) | pIC50 (ferroportin (Fpn)) | pIC50 (human Fpn) |
| --- | --- | --- |
| O=C(NCc1ncccc1F)c1csc(C2CCN(CCc3nc4ccccc4[nH]3)C2)n1 (stereo not shown) [Example 214] | 4.85 | 5.50 |
| O=C(NCc1ccccn1)c1csc(C2CCN(CCc3nc4ccccc4[nH]3)C2)n1 (stereo not shown) [Example 215] | 4.56 | 4.81 |
| O=C(NCc1ncccc1F)c1csc([C@H]2[C@@H]3CN(CCc4nc5ccccc5[nH]4)C[C@@H]32)n1 [Example 218] | 5.35 | 5.66 |
| Cc1c(C(=O)NCc2ncccc2F)ncn1CCNCCc1nc2ccccc2[nH]1 [Example 219] | 5.61 | 5.96 |
| CN(CCc1nc2ccccc2[nH]1)CCc1nc(C(=O)NCc2ncccc2F)co1 [Example 223] | 5.72 | 5.57 |
| O=C(NCc1ncccc1F)c1cccc(CCNCCc2nc3ccccc3[nH]2)c1 [Example 235] | 6.04 | 6.53 |
| O=C1N[C@@H](CCN2CCCc3nc4ccccc4n3C2)C(=O)N1CCc1ncccc1F [Example 240] | 5.61 | 5.57 |
| O=C(NCc1ncccc1F)c1cccc(CCNCCc2nc3c(F)cccc3[nH]2)c1 [Example 241] | 5.68 | 5.78 |
| CC(C)(CNCCc1nc2ccccc2[nH]1)c1nc(C(=O)NCc2ncccc2F)cs1 [Example 242] | 5.05 | 4.56 |
| O=C(NCc1cccnn1)c1coc(C2CN(CCc3nc4c(F)cccc4[nH]3)C2)n1 [Example 261] | 6.26 | 6.36 |
| O=C(c1csc(CCNCc2nc3ccccc3[nH]2)n1)N1CCCCC1 [compound 14] | 5.31 | 4.83 |
| O=C(CC(=O)NCc1ncccc1F)NCCNCc1nc2ccccc2[nH]1 [compound 149] | 5.20 | 4.77 |
| O=C(CC(=O)NCc1ncccc1F)NCCNCCc1nc2ccccc2[nH]1 [compound 168] | 6.05 | 5.87 |
| O=C(CCNCc1nc2ccccc2[nH]1)NCC(=O)NCc1ncccc1F [compound 172] | 5.41 | 5.47 |
| O=C(NCc1ncccc1F)[C@@H]1CCN(CCNCc2nc3ccccc3[nH]2)C1 [compound 204] | 5.48 | 5.79 |
| O=C(NCc1ncccc1F)c1ccnc(CCNCc2nc3ccccc3[nH]2)c1 [compound 222] | 5.47 | 6.09 |
